Data from US20100249419A1, “UTILIZATION OF NOVEL COMPOUNDS WITH AMYLOID AFFINITY AND METHOD OF PRODUCING THE SAME” (NIHON MEDI-PHYSICS CO., LTD., priority 2007, published 2010).

How the values were obtained:
[1] = molecular target: T1, aggregated Aβ (Aβ1-42) amyloid (Homo sapiens, UniProt P05067); assay: In vitro binding test: inhibition of [^125I]3′-I-BTA-0 binding to amyloid
T1 construct: Aβ1-42 (manufactured by Wako) was dissolved in phosphate buffer (pH 7.4); purchased Wako
Procedure: Affinity of the present compounds with amyloid was examined by the following in vitro binding tests.
The measured radioactivity level was defined as the background radioactivity level, and used in the calculation of the inhibition ratio (hereinafter referred to as BG).
(9) Using the radioactivity levels measured above in (7) and (8), the inhibition ratio was determined by the following formula (1).
A graph in which values converted by probit transformation from the obtained inhibition ratios were plotted relative to logarithms of concentrations of compounds for evaluation was prepared to obtain an approximate straight line by the least square method.

[2] = system: Salmonella typhimurium TA98; assay: Reverse mutation test (Ames test), TA98; type: cell-based
Procedure: (§1) In order to examine gene mutagenicity of Compounds 3, 5 and 8, reverse mutation test using Salmonella typhimurium TA98 and TA100 (hereinafter referred to as Ames test) was conducted.
(§2) The test was conducted without addition of S9mix and with addition of S9mix. Dimethylsulfoxide (hereinafter referred to as DMSO) was used as a negative control. A positive control was 2-(2-furyl)-3-(5-nitro-2-furyl)acrylamide (hereinafter referred to as AF-2) in case S9mix was not added, and 2-aminoanthracene (hereinafter referred to as 2-AA) in case S9mix was added.
(§3) As a sample solution to be added to a test plate, each compound was dissolved in DMSO to prepare a solution at a concentration of 50 mg/mL, and further, each solution was diluted with DMSO to prepare a solution with 7 dosage (geometric ratio 3). As a sample solution for preparing a sample of positive control, when TA98 was used as a test strain without addition of S9mix, a solution of AF-2 (compound concentration: 1 μg/mL) in DMSO was prepared; when TA100 was used as a test strain without addition of S9mix, a solution of AF-2 (compound concentration: 0.1 μg/mL) in DMSO was prepared; when TA98 was used as a test strain with addition of S9mix, a solution of 2-AA (compound concentration: 5 μg/mL) in DMSO was prepared; and when TA100 was used as a test strain with addition of S9mix, a solution of 2-AA (compound concentration: 10 μg/mL) in DMSO was prepared.
(§4) After each sample solution to be examined and a test strain (TA98 or TA100) were mixed together so as to make the addition amount of each sample to be 0.1 mL/plate, the mixture was multilayered using soft agar on a medium of a test plate, and then incubated at 37° C. for 48 hours. Separately, after each sample solution to be examined, S9mix and a test strain were mixed together so as to make the addition amount of each sample to be 0.1 mL/plate, the mixture was multilayered using soft agar on a medium of a test plate, and then incubated at 37° C. for 48 hours. On the other hand, only DMSO was used as a sample solution to perform the same procedure as above for the negative control. […]

[3] = system: Salmonella typhimurium TA100; assay: Reverse mutation test (Ames test), TA100; type: cell-based
Procedure: as §1, §2, §3, §4

[4] = system: bone marrow cells of Crlj:CD1(ICR) male mouse; assay: Micronucleus test; type: in vivo; conditions: single oral administration 250-2000 mg/kg, 24 and 48 hours
Procedure: In order to study mutagenicity (in vivo) of Compounds 3 and 7, induction of micronucleated polychromatic erythrocyte (hereinafter referred to as MNPCE) was examined using bone marrow cells of Crlj:CD1(ICR) male mouse.
0 mg/kg (negative control group), 250, 500, 1000 and 2000 mg/kg (test sample group) were set as doses for the test. Mice were sacrificed 24 and 48 hours after single oral administration, and bone marrow smear was prepared and observed. Further, a single dose of MMC at 2 mg/kg was abdominally administrated in positive control group, mice were sacrificed 24 hours after the administration, and then bone marrow smear was prepared and observed.
As statistical analysis, significance tests were conducted by Wilcoxon rank sum test for the appearance frequency of MNPCE and the ratio of polychromatic erythrocyte (hereinafter referred to as PCE) to the total red blood cell (hereinafter referred to as RBC) in each administration group concerning the test sample and positive control groups relative to the negative control group and concerning these groups relative to each other where the significance level was set to less than 5% and less than 1%, respectively.

[5] = International Publication No. WO03/106439; cited from earlier work
[6] = [^11C]-labeled, rats; cited from earlier work
[7] = Partition coefficient based on the octanol extraction method; type: physicochemical; conditions: octanol / 10 mmol/L phosphate buffer (pH 7.4)
Procedure: Partition coefficients based on the octanol extraction method (hereinafter referred to as log Poctanol) were measured, which are generally known as an indicator of permeability of compounds through the blood-brain barrier (hereinafter referred to as BBB).
A diethyl ether solution of Compound 1 prepared in Example 3 (Example 8), a diethyl ether solution of Compound 2 prepared in Example 6 (Example 9), and a diethyl ether solution of [^123I]-IMPY prepared in Reference Example 1 (Comparative Example 4) were each diluted with 10 mg/mL ascorbic acid-containing physiological saline solution, and adjusted to a radioactive concentration of 20-30 MBq/mL. To 2 mL of octanol, 10 μL each of the prepared sample solutions was added, 2 mL of 10 mmol/L phosphate buffer (pH 7.4) was added, followed by stirring for 30 seconds. After the mixture was centrifuged with a low-speed centrifuge (2000 rpm×60 min.), the octanol layer and the water layer were sampled each in an amount of 1 mL, and subjected to measurement of radioactivity count with an autowell gamma system (Type: ARC-301B, manufactured by Aloka). Using the obtained radioactivity count, log Poctanol was calculated in accordance with the equation (2).
A diethyl ether solution (Example 20) of Compound 4 prepared in Example 16, a diethyl ether solution (Example 21) of Compound 6 prepared in Example 19, and a diethyl ether solution (Comparative Example 7) of [^123I]-IMPY were each diluted with a 10 mg/mL ascorbic acid-containing physiological saline solution to adjust to a radioactive concentration of 20-30 MBq/mL. To 2 mL of octanol, 10 μL each of the prepared sample solution was added, and 2 mL of 10 mmol/L phosphate buffer (pH 7.4) was further added, followed by stirring for 30 seconds. After the mixture was centrifuged with a low-speed centrifuge (2000 rpm×60 min.), the octanol layer and the water layer were sampled each in an amount of 1 mL, and subjected to measurement of radioactivity count with an autowell gamma system (Type: ARC-301B, manufactured by Aloka). Using the obtained radioactivity count, logPoctanol was calculated in accordance with the equation (4).

[8] = Transferability into brain and clearance; type: in vivo, male Wistar rats; conditions: intravenous injection, rats
Procedure: Using Compound 1 (Example 10) and Compound 2 (Example 11), a time course change of radioactive accumulation in brain of male Wistar rats (7-week old) was measured.
A diethyl ether solution of Compound 1 (Example 10) prepared in Example 3, a diethyl ether solution of Compound 2 (Example 11) prepared in Example 6 and a diethyl ether solution of [^123I]-IMPY (Comparative Example 5) prepared in Reference Example 1 were each diluted with 10 mg/mL ascorbic acid-containing physiological saline solution to adjust to a radioactive concentration of 8-12 MBq/mL. 0.05 mL each of the prepared sample solutions was injected under thiopental anesthesia into the tail vein of the rats. The rats were sacrificed by bleeding from abdominal artery, and brains were removed and subjected to measurement of mass of brains and further subjected to measurement of radioactivity (hereinafter referred to as A in this Example) with a single channel analyzer (detector type: SP-20 manufactured by OHYO KOKEN KOGYO Co., Ltd.) 2, 5, 30 and 60 minutes after the injection. Further, the radioactivity level of the rest of the whole body was measured in the same manner as above (hereinafter referred to as B in this Example). Using these measurement results, radioactive distribution per unit weight of brain (% ID/g) at the respective time points were calculated in accordance with the following formula (3).
Three animals were used for the experiment at the respective time points.
Using Compound 4 and Compound 6, a time course change of radioactive accumulation in brain of male Wistar rats (7-week old) was measured.
Compound 4 (Example 22), Compound 6 (Example 23) and a solution of [^123I]-IMPY (Comparative Example 8) prepared above in Reference Example 1 were each diluted with a 10 mg/mL ascorbic acid-containing physiological saline solution to prepare solutions (20-31 MBq/mL in radioactive concentration). 0.05 mL each of the prepared sample solutions was injected under thiopental anesthesia into the tail vein of the respective Wistar rat (7-week old). The rats were sacrificed by bleeding from abdominal artery, and brains were removed and subjected to measurement of mass of brains and further subjected to measurement of radioactivity (hereinafter referred to as A in this Example) with a single channel analyzer (detector type: SP-20 manufactured by OHYO KOKEN KOGYO Co., Ltd.) 2, 5, 30 and 60 minutes after the injection. Further, the radioactivity level of the rest of the whole body was measured in the same manner as above (hereinafter referred to as B in this Example). Using these measurement results, radioactive distribution per unit weight of brain (% ID/g) at the respective time points were calculated in accordance with the following formula (5).

[9] = molecular target: T2, aggregated Aβ (Aβ1-40) injected into amygdaloid nucleus (Homo sapiens, UniProt P05067); assay: Ex vivo autoradiogram using rats of amyloid injected model (Aβ1-40); type: in vivo, male Wistar rat; conditions: brain slice 60 minutes after tail vein injection
T2 construct: Aβ1-40 (manufactured by Peptide Institute, INC.) was dissolved in phosphate buffer (pH 7.4); purchased Peptide Institute, INC
T2 sequence (P05067 672-711): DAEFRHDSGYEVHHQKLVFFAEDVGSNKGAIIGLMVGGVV
Procedure: (1) Aβ1-40 (manufactured by Peptide Institute, INC.) was dissolved in phosphate buffer (pH 7.4) and shaken at 37° C. for 72 hours, to obtain a 1 mg/mL suspension of aggregated Aβ (hereinafter referred to as amyloid suspension in this Example).
(2) 2.5 μL (corresponding to […]) of the amyloid suspension was injected into an amygdaloid nucleus on one side of a male Wistar rat (7-week old). As a control, 2.5 μL of a phosphate buffered physiological saline solution (pH 7.4) was injected into an amygdaloid nucleus on the other side of the rat. The rats were examined 1 day after the injection of the amyloid suspension and the phosphate buffered physiological saline solution (pH 7.4).
(3) [^123I]-IMPY was dissolved in a 10 mg/mL ascorbic acid-containing physiological saline solution to obtain a sample solution (29 MBq/mL in radioactivity concentration in the sample solution). This solution was injected under thiopental anesthesia into the rat through the tail vein (dosage: 0.5 mL, dosed radioactivity: 14.5 MBq equivalent).
(4) Brain was removed 60 minutes after the injection to prepare a brain slice of 10 μm in thickness with a microtome (type: CM3050S, manufactured by LEICA). The brain slice was exposed to an imaging plate for 20 hours, and then image analysis was carried out by use of a Bio-imaging Analyzer (type: BAS-2500; manufactured by FUJIFILM Corporation). […]

[10] = TA98, without addition of S9mix
[11] = TA100, without addition of S9mix

T1 sequence (P05067 672-713): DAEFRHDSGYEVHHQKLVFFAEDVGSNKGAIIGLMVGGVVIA

## OCCOc1ccc(-c2cn3cc(I)ccc3n2)cc1 [Compound 3, 2-[4′-(2″-hydroxyethoxy)phenyl]-6-iodoimidazo[1,2-a]pyridine]
[1]; [^125I]3′-I-BTA-0 400 pmol/L, amyloid 1 μmol/L, 22° C., 3 hours
  IC50: 66.9 nM
[1]; unit inferred
  IC50: < 100 nM
[2]; TA98, with addition of S9mix
  Mutagenicity: Negative
[2]; [10]
  Mutagenicity: Negative
[3]; TA100, with addition of S9mix
  Mutagenicity: Negative
[3]; [11]
  Mutagenicity: Negative
[4]
  Mutagenicity (in vivo), induction of MNPCE: negative

## OCCCOc1ccc(-c2cn3cc(I)ccc3n2)cc1 [Compound 7, 2-[4′-(3″-hydroxypropoxy)phenyl]-6-iodoimidazo[1,2-a]pyridine]
[2]; TA98, with addition of S9mix
  Mutagenicity: Negative
[2]; [10]
  Mutagenicity: Negative
[3]; TA100, with addition of S9mix
  Mutagenicity: Negative
[3]; [11]
  Mutagenicity: Negative
[4]
  Mutagenicity (in vivo), induction of MNPCE: negative

## CC(=C(C#N)C#N)c1ccc2cc(N(C)CCF)ccc2c1 [FDDNP, 2-(1-{6-[(2-fluoroethyl)(methyl)amino]-2-naphthyl}ethylidene)malononitrile]
[5]
  Reverse mutation test result: positive

## CN(C)c1ccc(-c2cn3cc(I)ccc3n2)cc1 [IMPY, 6-iodo-2-[4′-(N,N-dimethylamino)phenyl]imidazo[1,2-a]pyridine]
[5]
  Reverse mutation test result: positive

## CNc1ccc(/C=C/c2ccc(O)cc2)cc1 [SB-13, (E)-4-methylamino-4′-hydroxystilbene]
[6]
  Clearance from normal tissues: it cannot be said that the clearance is sufficiently fast

## CN(C)c1ccc(-c2cn3cc([123I])ccc3n2)cc1 [[^123I]-IMPY, reference compound]
[7]; Table 4, Examples 8-9
  logPoctanol value: 1.9
[7]; Table 6, Examples 20-21
  logPoctanol value: 2.1
[8]; After 2 min., Table 5
  Radioactive distribution per unit weight of brain: 1.19 % ID/g
[8]; After 2 min., Table 7
  Radioactive distribution per unit weight of brain: 1.19 % ID/g
[8]; After 5 min., Table 5
  Radioactive distribution per unit weight of brain: 0.97 % ID/g
[8]; After 5 min., Table 7
  Radioactive distribution per unit weight of brain: 0.97 % ID/g
[8]; After 30 min., Table 5
  Radioactive distribution per unit weight of brain: 0.23 % ID/g
[8]; After 30 min., Table 7
  Radioactive distribution per unit weight of brain: 0.23 % ID/g
[8]; After 60 min., Table 5
  Radioactive distribution per unit weight of brain: 0.09 % ID/g
[8]; After 60 min., Table 7
  Radioactive distribution per unit weight of brain: 0.09 % ID/g
[9]
  Accumulation of radioactivity in amygdaloid nucleus on the amyloid-injected side: marked accumulation of radioactivity
